SMILES strings stand for the structures. Counter-ions that a name gives are not always drawn.

Our source for the activity and activation values is patent US20250049776A1, “AUTOPHAGY INDUCING COMPOUNDS AND USES THEREOF, IN PARTICULAR FOR A SYSTEMIC TREATMENT OF DISEASES AND CONDITIONS” (Samsara Therapeutics Inc., priority 2021, published 2025).

In assay [1] the test system is U2OS cell line stabling expressing RFP-eGFP-hLC3b. In words: Tandem reporter assay (autophagic flux, RFP-only puncta). The assay is classed as cell-based. The note with it: Homo sapiens, RFP-only puncta as percentage of DMSO-treated control, 24 hours; for activity at 1 µM: read-out: Autolysosome % DMSO activity (compound concentration of 1 μM); for activity at 10 µM: read-out: Autolysosome % DMSO activity (compound concentration of 10 μM). The method, then: Selected compounds of this invention were also assessed for their ability to stimulate autophagy using a U20S cell line stabling expressing RFP-eGFP-hLC3b (a tandem reporter cell line). During the process of autophagy, the cargo to be degraded is first enveloped by organelles called autophagosomes. These autophagosomes then fuse with lysosomes, causing them to become acidified and their digestive enzymes to become activated. The term “autophagic flux” is used to represent the dynamic process of autophagy: autophagic flux refers to the whole process of autophagy, including autophagosome formation, maturation, fusion with lysosomes, subsequent breakdown and the release of macromolecules back into the cytosol (Zhang X J, Chen S, Huang K X, Le W D. Why should autophagic flux be assessed? Acta Pharmacol Sin. 2013 May; 34(5): 595-9. doi: 10.1038/aps.2012.184. Epub 2013 Mar. 11). Compounds that stimulate autophagic flux stimulate the dynamic process of autophagy (the whole process of autophagy).
LC3b is a protein found in the membrane of autophagosomes which has been used to generate genetic reporters of autophagy in cells. In these systems a tandem fusion of LC3b is engineered with two fluorescent proteins of different wavelengths: one which is acid sensitive (for example eGFP, which fluoresces green) and the other which is acid insensitive (for example RFP, which fluoresces red). Cells expressing RFP-eGFP-hLC3b can be examined using fluorescent microscopy: the autophagosomes present will fluoresce in both channels (either yellow in an overlay of both channels or puncta that are present in both the individual red and green channels) but the autolysosomes present will fluoresce in the RFP (red) channel only. Using a fluorescent microscope, the number of autophagosomes and autolysosomes can be counted, allowing for the monitoring of both the induction of autophagy (total puncta count) and the rate of autophagic flux (ratio of red-only to red-and-green puncta). The influence of small molecules on autophagy induction and flux can be assessed using this system by comparison to a non-treated control.
Representative Procedure: Human osteosarcoma U2OS cells stably expressing RFP-eGFP-hLC3b were seeded (10,000 cells/well) into a 96-well glass-bottom plate (Cell Carrier Ultra, Perkin Elmer) in DMEM Glutamax media (Gibco) supplemented with 10% Fetal Bovine Serum (FBS) and antibiotics (100 u/ml penicillin, 100 μg/ml streptomycin, Invitrogen), then incubated overnight in a humified atmosphere at 37° C. and 5% CO2. The cells were then treated with the compounds of interest, dissolved in DMSO, in a duplicated 5- or 10-point dose-response. 8 wells were treated with an equivalent volume of DMSO, 4 with 0.3 μM torin-1 as a positive control (MCE) and 4 wells with 0.4 μM torin-1 plus 0.2 μM bafilomycin (MCE) as a control for flux inhibition. The cells were returned to the incubator and the treatment continued for 24 hours. After treatment, the media was aspirated off and the cells fixed with a solution of 4% formaldehyde+1% glutaraldehyde (Sigma) in dPBS (plus magnesium and calcium, Gibco).
Fixation was allowed to proceed for 15 minutes at room temperature then the fixative solution discarded and replaced with PBS (Gibco) plus Hoescht 33342 ([…], Sigma). After 30 minutes the plates were imaged on an Opera Phenix confocal microscope (Perkin-Elmer) using a 40× water objective, collecting using DAPI, mCherry and GFP channels. Cells were detected based upon the staining of their nuclei with DAPI using the Harmony image analysis software (Perkin-Elmer) and the number of autophagosomes (GFP and RFP puncta) and autolysosomes (RFP only puncta) per cell were counted using the spot picking function within the software.
Background: In a reporter assay the amount or activity of a reporter protein is the signal.

The test system of assay [2] is Human osteosarcoma U20S cells. In words: Assay to measure lysosome and autolysosome formation (acidic vesicle formation, LysoView/LysoTracker staining). The assay is classed as cell-based. The note with it: Homo sapiens; U2OS cells, concentration of 0.8 μM; read-out: Activity (percentage increase in acidic vesicle formation over the DMSO-treated control), Table 2. The method, boiled down: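 U2OS cells treated with compounds in DMSO for 24 h, then stained 45 min at 37 °C with 1× LysoView 633 or 50 nM LysoTracker Deep Red, with Hoechst nuclear counterstain. Live-cell fluorescence imaging at 37 °C; acidic vesicle formation judged against DMSO-treated control.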

In the case of `CC(C)N(C(=O)c1csc(-c2cnn(-c3ccccc3)c2)n1)C1CCNCC1` [Compound 163, N-isopropyl-2-(1-phenyl-1H-pyrazol-4-yl)-N-(piperidin-4-yl)thiazole-4-carboxamide hydrochloride], in assay [1], the activity at 1 µM was 144% and the activity at 10 µM was 187%. In addition, in assay [2], the activation at 0.8 µM lay in the range of 10 to 30%.

As for `CCCN(C(=O)c1csc(-c2cnn(-c3ccccc3)c2)n1)[C@@H]1CCNC1` [Compound 171, (R)-2-(1-phenyl-1H-pyrazol-4-yl)-N-propyl-N-(pyrrolidin-3-yl)thiazole-4-carboxamide hydrochloride], in assay [1], the activity at 1 µM amounted to 200% and the activity at 10 µM came to 294%. For the same compound, the activation at 0.8 µM in assay [2] lay within 10 to 30%.
